Results: article PMC9732823, “Discovery of Dual Aβ/Tau Inhibitors and Evaluation of Their Therapeutic Effect on a Drosophila Model of Alzheimer’s Disease” (ACS Chemical Neuroscience, 2022)

Legend:
PAMPA-BBB assay = test: PAMPA-BBB assay
Description: Thus, to reduce attrition in the development process, the evaluation of BBB penetration at a very early drug discovery stage is of crucial importance. In light of this, the ability of the previously selected compounds to cross the BBB was predicted by a parallel artificial membrane permeability assay (PAMPA)-BBB,[41] a high-throughput technique widely used as an indicator of a molecule’s passive diffusion through the BBB. Six commercially available drugs were used to validate the assay.
PAMPA (the parallel artificial membrane permeability assay) is a high-throughput screening tool applicable for the prediction of the passive transport of potential drugs across the BBB.[41] In this study, it has been used as a non-cell-based in vitro assay carried out in a coated 96-well membrane filter. The filter membrane of the donor plate was coated with PBL (Polar Brain Lipid, Avanti) in dodecane (4 μL of 20 mg/mL PBL in dodecane) and the acceptor well was filled with 300 μL of phosphate buffer saline, (PBS pH 7.4; VA). The tested compounds were dissolved first in DMSO and then diluted with PBS pH 7.4 to reach the final concentrations of 50–500 μM in the donor well. […] Then, 300 μL of the donor solution (VD) was added to the donor wells and the donor filter plate was carefully put on the acceptor plate so that the coated membrane was “in touch” with both donor solution and acceptor buffer. In principle, the test compound diffuses from the donor well through the polar brain lipid membrane (area = 0.28 cm^2) to the acceptor well. The concentrations of the tested compound in both donor and the acceptor wells were assessed after 3, 4, 5, and 6 h of incubation in quadruplicate using a UV plate reader, Synergy HT (Biotek) at the maximum absorption wavelength of each compound (n=3). In addition to that, solution of the theoretical compound concentration, simulating the equilibrium state established if the membrane were ideally permeable, was prepared and assessed as well. The concentrations of the compounds in the donor and acceptor wells and the equilibrium concentration were calculated from the standard curve and expressed as the permeability (Pe) according to the equation[41] [drawing 1] where [drawing 2]

preaggregated Aβ42 = biological target: T1, preaggregated Aβ42 (Homo sapiens, UniProt P05067); test: Optical properties of 23 in the presence of aggregated Aβ42 (fluorescence emission spectra); format: binding; settings: 23 0.375 μM, Aβ42 0.75 μM, Gly-NaOH buffer 50 mM pH 8.5, λexc = 374 nm
T1 construct: (HFIP)-pretreated Aβ42 samples (Bachem AG, Switzerland); purchased Bachem AG, Switzerland
T1 sequence (P05067 672-713 limits assumed): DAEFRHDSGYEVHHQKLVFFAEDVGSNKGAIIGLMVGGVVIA
Description: The interaction of a fluorescent compound with three-dimensionally organized Aβ42 fibrils may lead to a change in its fluorescent properties as a consequence of either a reduction of flexibility due to multiple-interaction points and/or of a change in compound–solvent interactions because of the insertion of the compound within fibril helices. […] This assay setup allows the use of a slightly higher amount of DMSO, which is sufficient to grant compound solubility, because addition of the tested compound to Aβ42 samples is performed when fibrillization has already occurred.
Thus, we recorded the emission spectra of compound 23 in the absence and presence of preaggregated Aβ42.
As reported in a previously published protocol,[42] 1,1,1,3,3,3,-hexafluoro-2-propanol (HFIP)-pretreated Aβ42 samples (Bachem AG, Switzerland) were solubilized with a CH3CN/0.3 mM Na2CO3/250 mM NaOH (48.4:48.4:3.2) mixture to obtain a 500 μM solution. […]
A 1.5 mM stock solution of 23 in methanol was prepared and diluted in 50 mM glycine–NaOH buffer (pH 8.5) to a final concentration of 0.375 μM. Excitation and emission fluorescence spectra in the absence and in the presence of preaggregated Aβ42 (0.75 μM) were recorded using the following instrument setup: λexc = 374 nm, emission range = 400–600 nm; λem = 473 nm; excitation range = 250–460 nm; bandwidth (Ex) = 5 nm; bandwidth (Em) = 5 nm; scanning speed = […].

[1] = system: Arctic Aβ42 Drosophila flies; test: Climbing assay in Arctic Aβ42 Drosophila flies; settings: 20 μM in fly food
Description: Thus, we performed behavioral tests to assess the climbing abilities of Aβ42Drosophila flies with and without treatment with 22 (20 μM), 23 (20 μM), and doxycycline (50 μM), compared to control flies.
The transactivating protein GAL4 is placed under the control of a specific promoter, with its own spatial and temporal patterns, in this case, Elav, whereas the upstream activation sequence (UAS) localized upstream, the locus controlled by the UAS-Gal4; in our study, UAS expresses construct for the E22G variant of Aβ42 (Arctic Aβ42) (AlzArc2).[56],[64] Around 150 flies (half female/male) for each compound tested were collected and divided into groups of 25 flies. At the top of the media, 25 μL of doxycycline (50 μM), 22 (20 μM), or 23 (20 μM) were added fresh anytime the flies were flipped.
Briefly, males and females 25 per vial were kept at 25 °C. The climbing test was performed on days 7, 14, and 21 after birth. […] The protocol was repeated 10 times at 5-min intervals.

[2] = system: cerebellar granule neurons (CGNs); test: Neurotoxicity on primary cultures of cerebellar granule neurons (nuclei counting after Hoechst staining); settings: differentiated CGNs, 24 h, percentage of healthy nuclei on total nuclei, mean ± SEM of three experiments

Structure (SMILES): CN(C)CCN1C(=O)S/C(=C\c2ccc3c(c2)C(C)(C)c2cc(/C=C4\SC(=O)N(CCN(C)C)C4=O)ccc2-3)C1=O [Compound 23, (5Z,5′Z)-5,5′-((9,9-Dimethyl-9H-fluorene-2,7-diyl)bis(methanylylidene))bis(3-(2-(dimethylamino)ethyl)thiazolidine-2,4-dione)]
- Papp (PAMPA-BBB assay; PAMPA, pH 7.4): 18.9 ± 5.39 ×10⁻⁶ cm/s
- BBB permeability prediction (PAMPA-BBB assay; PAMPA-BBB): predicted to passively diffuse across the BBB
- CNS (+/-) (PAMPA-BBB assay; PAMPA-BBB penetration estimation): CNS + (CNS + (high BBB permeation predicted): Pe (×10-6 cm s-1) > 4.0)
- change of fluorescence emission upon binding to preaggregated Aβ42 (preaggregated Aβ42): strong hyperchromic effect upon binding
- climbing abilities of Aβ42 Drosophila flies on day 21 ([1]; day 21): no difference between the treated and untreated flies
- climbing abilities of Aβ42 Drosophila flies ([1]; days 7, 14, 21 post-eclosion): partially recovered phenotype that lasted until day 14
- % survival neurotoxicity @ 10 μM [2]: 87.9 ± 3.4%
